Literature values as cited in patent US20100291629A1, “USE OF DELEUCOCYTATION FILTERS FOR DEFENSIN PURIFICATION” (ETABLISSEMENT FRANCAIS DU SANG, priority 2006, published 2010).

Experiments:
neutrophils [1] = conditions: PMA 1 μg/ml
neutrophils [2] = tested on: neutrophils
isolated neutrophils = conditions: Ionomycin 1 μM; 30.10^6 isolated neutrophils

Compound: CCCCCCCCCCCCCC(=O)O[C@@H]1[C@@H](C)[C@@]2(O)[C@@H](C=C(CO)C[C@]3(O)C(=O)C(C)=C[C@@H]23)[C@@H]2C(C)(C)[C@]12OC(C)=O [PMA, phorbol myristate acetate]
- defensins released (neutrophils [1]): 8%

Compound: CSCC[C@H](NC=O)C(=O)N[C@@H](CC(C)C)C(=O)N[C@@H](Cc1ccccc1)C(=O)O [fMLP, N-formylmethionyl-leucyl-phenylalanine]
- defensin release, % of the content (neutrophils [2]; fMLP 10^−7 M): 17%

Compound: C[C@H](CCC(=O)O)C[C@H](C)C[C@H](C)C(=O)/C=C(\O)[C@H](C)C[C@H](C)C/C=C/[C@@H](C)[C@@H](O)[C@@H](C)[C@@H](O)C[C@@H]1CC[C@@](C)([C@H]2CC[C@@](C)([C@@H](C)O)O2)O1 [ionomycin, Ionomycin]
- α-defensin exocytosis rate (isolated neutrophils): approximately 20%

Compound: IL8: Interleukine 8, used to treat neutrophils in vitro
- defensin release, % of the defensin content in neutrophil granules (neutrophils [2]; IL8 50 ng/ml, 2.10^6 neutrophils): 10%
